Assays:
MIA-Pa-Ca2 = assay: MTT cell growth inhibition: MIA-Pa-Ca2; type: cell-based; settings: Homo sapiens, MIA PaCa-2, MIA-Pa-Ca2 pancreatic carcinoma, 72 h, read-out: Percentage (%) Cell Growth Inhibition in response to 25 µM of Drug
Method: (§1) All test agents were prepared as stock solutions (20 mM) in dimethyl sulfoxide (DMSO) and stored at −20 °C. Cell lines used in the study included HT29 (colorectal carcinoma); U87, SJ-G2, (glioblastoma); MCF-7, (breast carcinoma); A2780 (ovarian carcinoma); H460 (lung carcinoma); A431 (skin carcinoma); Du145 (prostate carcinoma); BE2-C (neuroblastoma); MiaPaCa-2 (pancreatic carcinoma); and SMA560 (spontaneous murine astrocytoma), together with the one non-tumour-derived normal breast cell line (MCF10A). All cell lines were incubated in a humidified atmosphere 5% CO2 at 37 °C. The cancer cell lines were maintained in Dulbecco’s modified Eagle’s medium (DMEM; Sigma, Australia) supplemented with foetal bovine serum (10%), sodium pyruvate (10 mM), penicillin (100 IUmL^−1), streptomycin (100 µg mL^−1) and L-glutamine (2 mM).
(§2) Growth inhibition was determined by plating cells in duplicate in medium (100 µL) at a density of 2500–4000 cells per well in 96-well plates. On day 0 (24 h after plating), when the cells were in logarithmic growth, medium (100 µL) with or without the test agent was added to each well. After 72 h drug exposure, growth inhibitory effects were evaluated using the MTT (3-(4,5-dimethyltiazol-2-yl)-2,5-diphenyltetrazolium bromide) assay and absorbance read at 540 nm. The percentage growth inhibition was calculated at a fixed concentration of 25 µM, based on the difference between the optical density values on day 0 and those at the end of drug exposure. Each data point is the mean ± the standard error of the mean (SEM) calculated from three replicates which were performed on separate occasions and separate cell line passages.

[1] = target: T1, coffee beans α-galactosidase (Coffea arabica, UniProt Q42656); assay: Glycosidase inhibition, laboratory 1: coffee beans α-galactosidase; type: biochemical; settings: methanol
T1 construct: purchased Sigma-Aldrich Co
Source text: (§3) The enzymes α-glucosidase (from yeast), β-glucosidases (from almond and bovine liver), α-galactosidase (from coffee beans), β-galactosidase (from bovine liver), α-mannosidase (from Jack bean), β-mannosidase (from snail), α-L-rhamnosidase (from Penicillium decumbens), α-L-fucosidase (from bovine kidney), trehalase (from porcine kidney), β-glucuronidases (from E. coli and bovine liver), amyloglucosidase (from A. niger), para-nitrophenyl glycosides, and various disaccharides were purchased from Sigma-Aldrich Co (St Louis, MO, USA).
(§4) Brush border membranes were prepared from the rat small intestine according to the method of Kessler et al. and were assayed at pH 6.8 for rat intestinal maltase using maltose. For rat intestinal maltase, porcine kidney trehalase, and A. niger amyloglucosidase activities, the reaction mixture contained 25 mM maltose and the appropriate amount of enzyme, and the incubations were performed for 10–30 min at 37 °C. The reaction was stopped by heating at 100 °C for 3 min. After centrifugation (600× g; 10 min), the resulting reaction mixture was added to the Glucose CII-test Wako (Wako Pure Chemical Ind., Osaka, Japan). The absorbance at 505 nm was measured to determine the amount of the released D-glucose. Other glycosidase activities were determined using an appropriate para-nitrophenyl glycoside as substrate at the optimum pH of each enzyme. The reaction mixture contained 2 mM of the substrate and the appropriate amount of enzyme. The reaction was stopped by addition of 400 mM Na2CO3. The released para-nitrophenol was measured spectrometrically at 400 nm. All reactions run in methanol.

E. coli β-glucuronidase = target: T2, E. coli β-glucuronidase (Escherichia coli, UniProt P05804); assay: Glycosidase inhibition, laboratory 1: E. coli β-glucuronidase; type: biochemical
T2 construct: purchased Sigma-Aldrich Co
Source text: as §3, §4

Bacillus α-glucosidase = assay: Glycosidase inhibition, laboratory 2: Bacillus α-glucosidase; type: biochemical; settings: water
Method: (§5) All enzymes and para-nitrophenyl substrates were purchased from Sigma. Enzymes were assayed at 27 °C in 0.1 M citric acid/0.2 M disodium hydrogen phosphate buffers at the optimum pH for the enzyme. The incubation mixture consisted of 10 μL enzyme solution, 10 μL of 1 mg/mL aqueous solution of extract and 50 μL of the appropriate 5 mM para-nitrophenyl substrate made up in buffer at the optimum pH for the enzyme. The reactions were stopped by addition of 70 μL 0.4 M glycine (pH 10.4) during the exponential phase of the reaction, which had been determined at the beginning using uninhibited assays in which water replaced inhibitor. Final absorbances were read at 405 nm using a Versamax microplate reader (Molecular Devices). Assays were carried out in triplicate, and the values given are means of the three replicates per assay. All reactions run in water.

MCF-7 = assay: MTT cell growth inhibition: MCF-7; type: cell-based; settings: Homo sapiens, MCF-7 breast carcinoma; for inhibition at 25 µM: MCF7, 72 h, MTT, read-out: Percentage (%) Cell Growth Inhibition in response to 25 µM of Drug
Method: as §1, §2

almond β-glucosidase = assay: Glycosidase inhibition, laboratory 2: almond β-glucosidase; type: biochemical; settings: water
Method: as §5

H460 = assay: MTT cell growth inhibition: H460; type: cell-based; settings: Homo sapiens, H460 lung carcinoma; for inhibition at 25 µM: NCI-H460, 72 h, MTT, read-out: Percentage (%) Cell Growth Inhibition in response to 25 µM of Drug
Method: as §1, §2

A2780 = assay: MTT cell growth inhibition: A2780; type: cell-based; settings: Homo sapiens, A2780 ovarian carcinoma; for inhibition at 25 µM: 72 h, MTT, read-out: Percentage (%) Cell Growth Inhibition in response to 25 µM of Drug
Method: as §1, §2

yeast α-glucosidase = target: T3, yeast α-glucosidase (Saccharomyces cerevisiae, UniProt P53341); assay: Glycosidase inhibition, laboratory 2: yeast α-glucosidase; type: biochemical; settings: read-out: % inhibition at ~400 μM, water
T3 construct: purchased Sigma
Method: as §5

A431 = assay: MTT cell growth inhibition: A431; type: cell-based; settings: Homo sapiens, A431 skin carcinoma; for inhibition at 25 µM: A-431, 72 h, MTT, read-out: Percentage (%) Cell Growth Inhibition in response to 25 µM of Drug
Method: as §1, §2

Du145 = assay: MTT cell growth inhibition: Du145; type: cell-based; settings: Homo sapiens, DU-145, Du145 prostate carcinoma, 72 h, read-out: Percentage (%) Cell Growth Inhibition in response to 25 µM of Drug
Method: as §1, §2

[2] = target: T4, A. niger amyloglucosidase (Aspergillus niger, UniProt P69328); assay: Glycosidase inhibition, laboratory 1: amyloglucosidase; type: biochemical
T4 construct: purchased Sigma-Aldrich Co
Source text: as §3, §4

BE2-C = assay: MTT cell growth inhibition: BE2-C; type: cell-based; settings: Homo sapiens, BE(2)-C, BE2-C neuroblastoma, 72 h, read-out: Percentage (%) Cell Growth Inhibition in response to 25 µM of Drug
Method: as §1, §2

[3] = read-out: inhibition % at 10 μM

T2 sequence (P05804 whole entry): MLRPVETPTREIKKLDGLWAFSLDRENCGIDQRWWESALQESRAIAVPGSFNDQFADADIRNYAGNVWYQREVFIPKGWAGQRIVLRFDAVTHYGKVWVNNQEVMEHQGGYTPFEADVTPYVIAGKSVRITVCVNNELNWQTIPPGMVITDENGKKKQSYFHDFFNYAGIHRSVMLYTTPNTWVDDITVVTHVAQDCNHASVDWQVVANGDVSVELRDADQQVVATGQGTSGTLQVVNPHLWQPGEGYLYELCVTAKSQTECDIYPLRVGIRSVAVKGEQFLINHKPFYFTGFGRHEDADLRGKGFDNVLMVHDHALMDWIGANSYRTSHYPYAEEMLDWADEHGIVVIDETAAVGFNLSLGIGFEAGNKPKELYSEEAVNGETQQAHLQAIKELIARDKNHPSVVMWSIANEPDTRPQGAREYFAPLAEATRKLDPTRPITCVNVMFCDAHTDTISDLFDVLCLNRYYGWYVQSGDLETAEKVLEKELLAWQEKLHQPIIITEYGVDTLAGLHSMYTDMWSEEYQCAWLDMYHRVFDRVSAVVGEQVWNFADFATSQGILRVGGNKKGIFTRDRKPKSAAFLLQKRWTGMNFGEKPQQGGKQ
T1 sequence (Q42656 16-378): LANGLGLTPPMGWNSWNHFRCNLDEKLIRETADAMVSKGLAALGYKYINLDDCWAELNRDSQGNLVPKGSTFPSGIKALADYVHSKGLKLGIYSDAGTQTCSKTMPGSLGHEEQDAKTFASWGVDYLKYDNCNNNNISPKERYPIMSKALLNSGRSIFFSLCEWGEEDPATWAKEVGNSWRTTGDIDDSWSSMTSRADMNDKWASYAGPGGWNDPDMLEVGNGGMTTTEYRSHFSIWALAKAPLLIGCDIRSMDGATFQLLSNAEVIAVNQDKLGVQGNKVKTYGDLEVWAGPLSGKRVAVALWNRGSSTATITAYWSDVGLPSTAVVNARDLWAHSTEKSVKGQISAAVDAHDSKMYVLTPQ
T3 sequence (P53341 whole entry): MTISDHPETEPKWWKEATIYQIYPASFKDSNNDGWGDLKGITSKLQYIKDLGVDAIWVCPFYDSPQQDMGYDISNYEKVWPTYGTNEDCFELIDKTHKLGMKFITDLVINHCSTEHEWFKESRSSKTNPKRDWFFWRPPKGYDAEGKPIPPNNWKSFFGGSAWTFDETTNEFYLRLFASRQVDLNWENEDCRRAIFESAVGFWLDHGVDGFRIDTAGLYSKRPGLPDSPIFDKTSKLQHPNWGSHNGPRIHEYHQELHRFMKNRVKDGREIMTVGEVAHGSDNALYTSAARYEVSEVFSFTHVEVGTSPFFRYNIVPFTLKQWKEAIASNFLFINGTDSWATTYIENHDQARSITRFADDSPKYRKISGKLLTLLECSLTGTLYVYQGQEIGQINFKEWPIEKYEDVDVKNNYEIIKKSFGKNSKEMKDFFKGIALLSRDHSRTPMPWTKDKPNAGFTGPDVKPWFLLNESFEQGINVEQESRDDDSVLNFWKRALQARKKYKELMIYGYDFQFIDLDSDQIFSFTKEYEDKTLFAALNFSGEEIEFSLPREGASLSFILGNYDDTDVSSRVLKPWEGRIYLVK
T4 sequence (P69328 25-640): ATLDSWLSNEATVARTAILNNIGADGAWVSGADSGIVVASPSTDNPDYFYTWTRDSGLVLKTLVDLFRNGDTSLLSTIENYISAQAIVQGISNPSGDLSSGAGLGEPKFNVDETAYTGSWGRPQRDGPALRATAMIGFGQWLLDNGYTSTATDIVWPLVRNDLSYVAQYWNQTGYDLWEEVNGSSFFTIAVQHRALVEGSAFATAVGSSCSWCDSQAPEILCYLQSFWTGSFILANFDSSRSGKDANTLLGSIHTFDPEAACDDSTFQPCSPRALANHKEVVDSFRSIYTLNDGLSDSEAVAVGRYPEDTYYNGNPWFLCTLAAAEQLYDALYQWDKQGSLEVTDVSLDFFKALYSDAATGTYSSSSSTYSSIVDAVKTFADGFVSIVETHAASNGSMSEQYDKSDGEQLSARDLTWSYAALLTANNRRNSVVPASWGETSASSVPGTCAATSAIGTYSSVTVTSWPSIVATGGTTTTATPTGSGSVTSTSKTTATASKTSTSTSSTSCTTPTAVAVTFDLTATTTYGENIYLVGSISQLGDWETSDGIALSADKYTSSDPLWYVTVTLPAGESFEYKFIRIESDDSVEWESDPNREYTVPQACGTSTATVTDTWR

Row | SMILES | inhibition at 25 µM (MIA-Pa-Ca2) [%] | inhibition at 100 µM ([1]; 100 μM) [%] | inhibition at 100 µM (E. coli β-glucuronidase; E. coli β-glucuronidase, 100 μM, methanol, read-out: inhibition % at 100 μM) [%] | % inhibition at ~400 μM (Bacillus α-glucosidase) [%] | inhibition at 25 µM (MCF-7) [%] | % inhibition at ~400 μM (almond β-glucosidase) [%] | inhibition at 25 µM (H460) [%] | inhibition at 25 µM (A2780) [%] | inhibition at 400 µM (yeast α-glucosidase) [%] | inhibition at 25 µM (A431) [%] | inhibition at 25 µM (Du145) [%] | inhibition at 100 µM ([2]; A. niger amyloglucosidase, 100 μM, methanol, read-out: inhibition % at 100 μM) [%] | inhibition at 25 µM (BE2-C) [%] | inhibition at 10 µM ([1]; 10 μM) [%] | inhibition at 10 µM (E. coli β-glucuronidase; [3]) [%] | GI50 (MCF-7; MCF7, read-out: GI50 = Concentration (µM) that inhibits cell growth by 50%, dose response) [µM] | GI50 (H460; NCI-H460, read-out: GI50 = Concentration (µM) that inhibits cell growth by 50%, dose response) [µM] | GI50 (A2780; read-out: GI50 = Concentration (µM) that inhibits cell growth by 50%, dose response) [µM] | GI50 (A431; A-431, read-out: GI50 = Concentration (µM) that inhibits cell growth by 50%, dose response) [µM] | inhibition at 10 µM [2, 3] [%]
1 | CC1(C)OB(c2ccc(NC(=O)c3cc(Cl)c(Cl)c(Cl)c3Cl)cc2)OC1(C)C [para 5, 2,3,4,5-tetrachloro-N-(4-(4,4,5,5-tetramethyl-1,3,2-dioxaborolan-2-yl)phenyl)benzamide] | 52 ± 1 | 35.8 | 45.5 | 20 | 42 ± 5 | 11.3 | 54 ± 2 | 50 ± 1 | 38.4 | 64 ± 4 | 1 ± 13 | 0 | 54 ± 1 | – | – | – | – | – | – | –
2 | CC1(C)OB(c2cccc(CN3C(=O)c4c(Cl)c(Cl)c(Cl)c(Cl)c4C3=O)c2)OC1(C)C [meta 3, 4,5,6,7-Tetrachloro-2-(3-(4,4,5,5-tetramethyl-1,3,2-dioxaborolan-2-yl)benzyl)isoindoline-1,3-dione] | 29 ± 2 | – | – | 31.7 | 67 ± 7 | 19.3 | 42 ± 6 | 70 ± 2 | 32.2 | 48 ± 3 | 43 ± 13 | – | 45 ± 2 | 3.5 | 6.1 | 23 ± 3.7 | 33 ± 2.3 | 19 ± 0.33 | 28 ± 0.85 | 3.2

Source: publication PMC9182199, “Borylated 2,3,4,5-Tetrachlorophthalimide and Their 2,3,4,5-Tetrachlorobenzamide Analogues: Synthesis, Their Glycosidase Inhibition and Anticancer Properties in View to Boron Neutron Capture Therapy” (Molecules, 2022)
